From patent publication US20220008547A1, “Carrier Peptide Fragment and use Thereof” (TOAGOSEI CO., LTD, priority 2020, published 2022)
Non-standard residues stand in square brackets, D forms with d. No end group written: not given here. FAM = fluorescent dye label; Ahx = NCCCCCC(=O)O; βAla = NCCC(=O)O

System: HeLa cells
Assay: Evaluation of cell-penetrating function by flow cytometry (mean fluorescent intensity)
Type: cell-based, human
Conditions: for MFI (mean fluorescent intensity of measurement target cell populations): 10 μM final concentration, 20-hour incubation at 37° C., 0.5% DMSO, flow cytometer FL2, 10,000 cells
Description: HeLa cells (established cell lines derived from human cervical cancer cells) were used as eukaryotic cells, and cell-penetrating functions of three samples (constructs for introducing a foreign substance) obtained in Example 1 were examined
In this example, Examples 1 to 3 were set according to the kind of peptide used as shown below. In addition, as Examples 4 and 5, peptide-free groups were set. The following test was performed in a total of 5 categories. Here, the concentration described below was a final concentration during the following 20-hour incubation.
Here, in all of the examples, the concentration of DMSO was adjusted to 0.5% during the following 20-hour incubation. In addition, the number of test wells (n) in each of the above examples was set to 3.
HeLa cells were cultured using a mixed solution containing a 90% Eagle's MEM medium (containing 0.1% non-essential amino acid, 2 mM of L-glutamine, 1 mM of sodium pyruvate, and 1.5 g/L of sodium bicarbonate) and 10% serum (FBS: fetal bovine serum) as a culture solution.
The HeLa cells were subjected to a trypsin treatment with a 0.25% trypsin/EDTA solution at 37° C. for 3 minutes. After the above treatment, trypsin was inactivated using the culture solution. Centrifugation was performed and the centrifugal supernatant was removed. The cell pellet obtained by centrifugation was suspended in a fresh culture solution. A cell suspension (sample for introducing a foreign substance) having a cell concentration of about 1×10^5 cells/well was prepared from the culture solution, and 2 ml thereof was seeded in each well of a commercially available 6-well plate (commercially available from Iwaki). Then, the cells were cultured at 37° C. for 4 hours under 5% CO2 conditions, and adhesion of the seeded cells was confirmed.
Then, 1 ml of the culture supernatant was removed from the well after the culture for 4 hours, and a culture solution containing Sample 1 at a concentration of 20 μM was added. That is, the final sample concentration in the well was 10 μM.
The plate was then incubated at 37° C. for 20 hours under 5% CO2 conditions.
After such incubation for 20 hours, the cells were washed twice with PBS at 1 ml/well. Then, the cells in the wells were treated with a 0.25% trypsin/EDTA solution at 200 μL/well at 37° C. for 3 minutes. Then, a culture solution at 400 μL/well was additionally added and the cells were collected in the tube. Then, the wells were additionally washed with PBS at 600 μL/well, and the cells remaining in the wells were collected in the above tube. The tube was centrifuged at 4° C. for 5 minutes under 210×g conditions. The centrifugal supernatant was removed, and the cell pellet was suspended (washed) in 1 ml PBS, and centrifuged under the same conditions as above. This operation was repeated twice.
Then, the collected cells were analyzed using a flow cytometer. […]
Using the above flow cytometer, gating was performed based on forward scatter (FSC) and side scatter (SSC), and a gate was set for a measurement target cell population. Then, the fluorescent intensity of the cell population within such a gate was measured. The fluorescent intensity of 10,000 measurement target cells was measured for each measurement sample. […] The measurement results were analyzed using commercially available analysis software “FlowJo (registered trademark)” (commercially available from TreeStar), and a mean fluorescent intensity (MFI) of measurement target cell populations was obtained. […]

FAM-TLKERCLQVVRSLVKKKRTLRKNDRKKR-CONH2 ({FAM}-TLKERCLQVVRSLVKKKRTLRKNDRKKR-NH2) [Example 1]
MFI (mean fluorescent intensity of measurement target cell populations): 8.2 × 10^2
cell permeability (comparison of MFI among samples) (10 μM, 20-hour incubation): the best

5(6)-Carboxyfluorescein [Example 4]
MFI (mean fluorescent intensity of measurement target cell populations): 9.7

FAM-KKRTLRKNDRKKR-CONH2 ({FAM}-KKRTLRKNDRKKR-NH2) [Example 2]
MFI (mean fluorescent intensity of measurement target cell populations): 24

RXRRBRRXRYQFLIRXRBRXRB-FAM (R[Ahx]RR[βAla]RR[Ahx]RYQFLIR[Ahx]R[βAla]R[Ahx]R[βAla]-{FAM}) [Example 3, X aminohexanoic acid, B β-alanine]
MFI (mean fluorescent intensity of measurement target cell populations): 4.0 × 10^2
